Each structure is given as a SMILES string.

The first experiment has as its target T1, LSD1 (Homo sapiens, UniProt O60341).
T1 construct: purchased Cayman Chemical Company 700120
Briefly: LSD1 histone demethylase assay (LSD1 Inhibitor Screening Assay Kit, Cayman).
Details: not given
The format is biochemical. As to the method:
Recombinant (expressed in baculovirus infected BTI insect cells) monoamine oxidase A and monoamine oxidase B (Catalog No. M7316 and M7441, respectively) were purchased from Sigma-Aldrich Co. LLC. (St. Louis, Mo.). MAO-Glo™ Assay Kit was purchased from Promega Corporation (Madison, Wis.). ATPlite™ Luminescence Assay System (e.g. Catalog No. V1401) was purchased from PerkinElmer Inc. (Waltham, Mass.).
Briefly, test compounds were diluted to 20× the desired test concentration in 100% DMSO and 2.5 μL of the diluted test sample was added to a black 384-well plate. The LSD1 enzyme stock was diluted 17-fold with assay buffer, and 40 μL of the diluted LSD1 enzyme was added to the appropriate wells. Substrate, consisting of horseradish peroxidase, dimethyl K4 peptide corresponding to the first 21 amino acids of the N-terminal tail of histone H3, and 10-acetyl-3,7-dihydroxyphenoxazine was then added to wells. Resorufin was analyzed on an Envision plate reader with an excitation wavelength of 530 nm and an emission wavelength of 595 nm.
IC50 values are determined using GraphPad Prism 5 software. The data were entered as an X-Y plot into the software as percent inhibition for each concentration of the drug. The concentration values of the drug were log transformed and the nonlinear regression was carried out using the “sigmoidal dose-response (variable slope)” option within the GraphPad software to model the data and calculate IC50 values.
A word on the IC50: it is the midpoint of a concentration-inhibition curve. A high value points to lower potency. The molecule `CN1CCN(S(=O)(=O)c2cccc(C(=O)N/N=C3/CCc4cc(O)cc(Cl)c43)c2)CC1` [SP-10043_Z] came in with an IC50 above 10 µM.

Regarding `Cc1cc(Cl)c2c(c1O)/C(=N/NC(=O)c1cccc(S(=O)(=O)N3CCC(C)CC3)c1)CC2` [SP-10046_E, (E)-N′-(4-chloro-7-hydroxy-6-methyl-2,3-dihydro-1H-inden-1-ylidene)-3-((4-methylpiperidin-1-yl)sulfonyl)benzohydrazide], the IC50 was above 10 µM.

Take `CN1CCN(S(=O)(=O)c2cccc(C(=O)N/N=C3/CCc4c(F)ccc(O)c43)c2)CC1` [SP-10044_Z]: the IC50 worked out at 0.403 µM.

Molecule `Cc1ccc(Cl)c2c1/C(=N/NC(=O)c1cccc(S(=O)(=O)N3CCN(C)CC3)c1)CC2` [SP-10061_E, (E)-N′-(4-chloro-7-methyl-2,3-dihydro-1H-inden-1-ylidene)-3-((4-methylpiperazin-1-yl)sulfonyl)benzohydrazide] displayed an IC50 of 30.4 µM.

As to `CC1CC(=NNC(=O)c2cccc(S(=O)(=O)N3CCN(C)CC3)c2)c2c(O)ccc(Cl)c21` (stereo in doubt) [SP-10054_Z, (E)-N′-(4-chloro-7-hydroxy-3-methyl-2,3-dihydro-1H-inden-1-ylidene)-3-((4-methylpiperazin-1-yl)sulfonyl)benzohydrazide], half-maximal inhibition (IC50) required 0.029 µM.

The molecule `CN1CCN(S(=O)(=O)c2cccc(C(=O)N/N=C3\CCc4cc(O)cc(Cl)c43)c2)CC1` [SP-10043-E, (E)-N′-(7-chloro-5-hydroxy-2,3-dihydro-1H-inden-1-ylidene)-3-((4-methylpiperazin-1-yl)sulfonyl)benzohydrazide] had a half-maximal inhibitory concentration (IC50) above 10 µM.

In the case of `CC1C/C(=N\NC(=O)c2cccc(S(=O)(=O)N3CCOCC3)c2)c2c(O)ccc(Cl)c21` (stereo not drawn) [SP-10055_E, (E)-N′-(4-chloro-7-hydroxy-3-methyl-2,3-dihydro-1H-inden-1-ylidene)-3-(morpholinosulfonyl)benzohydrazide], the IC50 came to 0.078 µM.

In turn, `CC1CC(=NNC(=O)c2cccc(S(=O)(=O)N3CCOCC3)c2)c2c(O)ccc(Cl)c21` (stereo in doubt) [SP-10055_Z, (E)-N′-(4-chloro-7-hydroxy-3-methyl-2,3-dihydro-1H-inden-1-ylidene)-3-(morpholinosulfonyl)benzohydrazide] came in with an IC50 of 0.418 µM.

For the molecule `CCN1CCN(S(=O)(=O)c2cccc(C(=O)NN=C3CCc4c(Cl)cc(C)c(O)c43)c2)CC1` (stereo in doubt) [SP-10047_Z, (E)-N′-(4-chloro-7-hydroxy-6-methyl-2,3-dihydro-1H-Inden-1-ylidene)-3-((4-ethylpiperazin-1-yl)sulfonyl)benzohydrazide], the IC50 was 0.426 µM.

For another experiment, the target named is T2, LSD2 (Homo sapiens, UniProt Q8NB78).
T2 sequence (Q8NB78 1-822): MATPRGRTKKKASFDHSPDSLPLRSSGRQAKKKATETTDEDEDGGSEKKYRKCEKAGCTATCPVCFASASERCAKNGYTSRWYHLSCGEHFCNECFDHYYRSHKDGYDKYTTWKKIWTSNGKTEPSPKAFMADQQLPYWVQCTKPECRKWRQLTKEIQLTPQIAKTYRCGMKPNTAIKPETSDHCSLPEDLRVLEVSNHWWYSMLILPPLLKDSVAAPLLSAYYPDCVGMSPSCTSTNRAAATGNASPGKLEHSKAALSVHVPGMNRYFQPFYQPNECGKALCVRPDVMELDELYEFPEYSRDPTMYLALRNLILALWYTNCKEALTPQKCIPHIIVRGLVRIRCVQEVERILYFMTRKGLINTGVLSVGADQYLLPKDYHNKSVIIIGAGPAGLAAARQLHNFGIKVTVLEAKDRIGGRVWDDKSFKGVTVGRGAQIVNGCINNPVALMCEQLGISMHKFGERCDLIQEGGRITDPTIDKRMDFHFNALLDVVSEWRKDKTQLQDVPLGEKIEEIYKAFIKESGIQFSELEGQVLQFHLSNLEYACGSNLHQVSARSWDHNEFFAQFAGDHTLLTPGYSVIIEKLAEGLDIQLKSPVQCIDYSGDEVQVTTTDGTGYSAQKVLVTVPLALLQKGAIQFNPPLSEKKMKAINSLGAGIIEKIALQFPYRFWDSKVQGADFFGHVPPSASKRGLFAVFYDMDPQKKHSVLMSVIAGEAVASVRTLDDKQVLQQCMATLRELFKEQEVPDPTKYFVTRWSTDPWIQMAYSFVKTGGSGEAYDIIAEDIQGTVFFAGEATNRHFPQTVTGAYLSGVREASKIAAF
Kind of experiment: LSD2 enzymatic activity (FIG. 4). The format is biochemical.
Details: not given
From the text:
Inhibition of LSD activity can be determined by a variety of both in vitro and in vivo methods known to one skilled in the art. For example, enzymatic activity can be determined in in vitro enzyme assay systems. In various aspects, the enzymatic activity of either LSD1 or LSD2 can be determined in a spectrophometric assay. Briefly, the assay is based on the multistep enzymatic reaction in which LSD1 or LSD2 first produces H2O2 during the demethylation of lysine 4 on a peptide corresponding to the first 21 amino acids of the N-terminal tail of histone H3. In the presence of horseradish peroxidase, the H2O2 produced reacts with ADHP to produce the highly fluorescent compound resorufin that can be analyzed with an excitation wavelength of 530-540 nm and an emission wavelength of 585-595 nm. The assay requires a source of LSD or LSD2 enzyme, either purified from natural sources (e.g. a tissue or cultured cells), isolated as a recombinantly expressed protein, or as a unpurified protein in whole cell extracts.
As to `CN1CCN(S(=O)(=O)c2cccc(C(=O)N/N=C3/CCc4c(Cl)ccc(O)c43)c2)CC1` [SP-10041_Z], the “inhibition of LSD2 activity (in words, FIG. 4)” value was “significantly inhibit”.

For the molecule `CN1CCN(S(=O)(=O)c2cccc(C(=O)N/N=C3\CCc4c(Cl)ccc(O)c43)c2)CC1` [SP-10041_E, (E)-N′-(4-chloro-7-hydroxy-2,3-dihydro-1H-inden-1-ylidene)-3-((4-methylpiperazin-1-yl)sulfonyl)benzohydrazide], the “inhibition of LSD2 activity (in words, FIG. 4)” value is on record as “significantly inhibit”.

The subject of another experiment is Ewing's sarcoma cells. Kind of experiment: Cell viability with drug screening (CellTiter Glo, 72 hour). The format is cell-based. The note with it: SK-N-MC, SKESI, A673 cells. As to the method: A hemocytometer count is performed to determine cell concentration. In a 96-well tissue culture plate, 2000 cells per well are plated for each drug concentration. Generally, 10 wells are done in duplicate. Then, the plates are placed in incubator overnight to allow cells to adhere to the plate (If suspension cells, proceed to the next step). Then, the desired drug concentrations are added to each well (ex. Serial dilutions 10 uM, 3 uM, 1 uM, […] . . . etc.). Generally, each drug concentration is made at 10× in media and then 10 uL of drug is diluted in 90 uL of cells to get the final desired concentration. Then, the cells are incubated at 37° C. for 72 hours; after 72 hours, 100 uL of Promega Cell Titer Glo is added, and allowed incubation at room temperature for 10 minutes. Finally, the plates are read using the Envision software. Data analysis is performed using Graph Pad Prism 6.
FIGS. 5-7 depict graphs showing 72 hour time course cell viability of Ewing's sarcoma using CellTiter Glo (Promega). The tested compound was 10054Z and the control compound was 2606 which has the following structure: […]
With `CC1CC(=NNC(=O)c2cccc(S(=O)(=O)N3CCN(C)CC3)c2)c2c(O)ccc(Cl)c21` (stereo in doubt) [SP-10054_Z, (E)-N′-(4-chloro-7-hydroxy-3-methyl-2,3-dihydro-1H-inden-1-ylidene)-3-((4-methylpiperazin-1-yl)sulfonyl)benzohydrazide], the “viability of Ewing's sarcoma cells (in words, FIGS. 5-7)” value is recorded as “significantly decrease the viability”.

The values are drawn from patent US20170001970A1, “Substituted benzohydrazide analogs as histone demethylase inhibitors” (University of Utah Research Foundation, priority 2015, published 2017).
